From patent US10946024B2, “Method for treating cancer” (Epizyme, Inc., priority 2014, dated 2021)

Key:
Assay type in all cases: cell-based, human
SW982 cells = assay: Adherent cell line long-term (14-day) proliferation assay, CellTiter-Glo; conditions: SW982, 14-day long-term proliferation assay
Method: (§1) 96-well plating for 7 day assay: For each adherent cell line, plated cells in a volume of 100 μL in 96-well plates, to be treated in triplicate, either in the evening (to treat with compound the following day) or in morning (to treat with compound in the evening), to allow cells to attach to plates before compound treatment.
(§2) 6-well plates to be split for 7-14 day assay: Plated 2 mL of cells at the correct density in each well of the 6-well plate. Calculated the correct density from the 96-well plate growth curve by multiplying the 96-well density by 30. The factor 30 came from growth area of the 6-well plate divided by the growth area of the 96-well plate (9.5 cm^2/0.32 cm^2=29.7, rounded up to 30), which corresponds to 30-fold more surface area in a 6-well vs. a 96-well plate.
(§3) Day 0: Treated with compound or DMSO by removing media and adding back either 100 μL (for 96-well plate) or 2 mL (for 6-well plate) media with the correct dilutions of compound/DMSO. Table 1 includes an example of 96-well plate map. Plates were incubated for 96 hours.
(§4) Read one 96-well plate with CellTiter-Glo® for a Day 0 reading (media change not necessary for this plate).
(§5) Day 4: Read one 96-well plate with CellTiter-Glo® for a Day 4 reading (media change not necessary for this plate before reading). Replaced media with fresh media containing compound on Day 4 in 96-well plates and 6-well plates.
(§6) Day 7: read final 96-well plate with CellTiter-Glo®.
(§7) Counted individual wells of 6-well plates, and replated cells to initial plating density in 96-well plates, as described above.
(§8) Repeated steps for Days 0-7 for Days 7-14 of the proliferation assay.
(§9) Particularly, approximately 12 hours before compound treatment, HS-SY-II or SW982 cells were plated at the density of 24,000 cells/well and 7,500 cells/well, respectively in 6-well plates. On day 0, cells were treated with either DMSO or compound starting at 10 μmol/L and decreasing in fourfold dilutions. On day 7, the cells in 6-well plates were trypsinized, counted by TC10 automated cell counter (Bio-Rad, Richmond, Calif.) and replated at the density of 800 cells/well and 250 cells/well for HS-SY-II and SW982, respectively in 96-well plates in triplicate. The cells were allowed to adhere to the plate overnight, and treated with either DMSO or compound as on Day 0. On days 0, 7, 11, and 14, cell viability was determined by CellTiter-Glo® Luminescent Cell Viability Assay (Promega) with EnVision 2103 Multilabel Reader (Perkin-Elmer, Wellesley, Mass.). Compound/media was changed with new one on Day 4 and 11. The ratios of the measured values on Days 7, 11, and 14 to that of day 7 were used to plot proliferation from day 7 to day 14, and to calculate the IC50 values on Day 14. […]

HS-SY-II cells = assay: as above; conditions: 14-day long-term proliferation assay
Method: as §1, §2, §3, §4, §5, §6, §7, §8, §9

[1] = system: ATF3, EGR1 expression in SW982 cells; assay: Gene expression changes in vitro by RT-PCR, normalized to GAPDH; parameters: key to EGR1 expression change, significance 0 uM vs.: *: Asterisks mean significant changes compared to levels of 0 μM-treated groups.; **: Asterisks mean significant changes compared to levels of 0 μM-treated groups.; ***: Asterisks mean significant changes compared to levels of 0 μM-treated groups.; ****: Asterisks mean significant changes compared to levels of 0 μM-treated groups
Method: (§10) HS-SY-II and SW982 cells were treated with EZH2 inhibitors (Compound A or EPZ-011989) and collected at the indicated time points. Total RNA isolation and cDNA synthesis were performed using the TaqMan Gene Expression Cells-to-CT kit (4399002, Life technologies) according to the manufacturer's protocol. ATF3, EGR1, CDKN2A and GAPDH expression were analyzed by using the TaqMan Gene Expression Assays (Life technologies, 4331182) and the TaqMan Probes (Hs00231069_m1, Hs00152928_m1, Hs00233365_m1, and Hs99999905_m1, respectively).

[2] = system: ATF3, EGR1, CDKN2A expression in HS-SY-II cells; assay: as above; parameters: key to ATF3 expression change, significance 0 uM vs. / EGR1 expression change, significance 0 uM vs. / CDKN2A expression change, significance 0 uM vs.: *: Asterisks mean significant changes compared to levels of 0 μM-treated groups.; **: Asterisks mean significant changes compared to levels of 0 μM-treated groups.; ***: Asterisks mean significant changes compared to levels of 0 μM-treated groups.; ****: Asterisks mean significant changes compared to levels of 0 μM-treated groups; conditions: for ATF3 expression change, significance 0 uM vs. / CDKN2A expression change, significance 0 uM vs. / EGR1 expression change, significance 0 uM vs.: HS-SY-II
Method: as §10

| SMILES | sensitivity of cell proliferation (SW982 cells) | sensitivity of cell proliferation (HS-SY-II cells) | EGR1 expression change, significance 0 uM vs. ([1]; SW 982, 0.1 uM, day 2) | EGR1 expression change, significance 0 uM vs. ([1]; SW 982, 0.1 uM, day 4) | EGR1 expression change, significance 0 uM vs. ([1]; SW 982, 1 uM, day 7) | ATF3 and EGR1 expression ([1]; SW982 in vitro culture) | ATF3 and EGR1 expression ([2]; HS-SY-II in vitro culture) | CDKN2A expression ([2]; HS-SY-II in vitro culture) | ATF3 expression change, significance 0 uM vs. ([2]; 0.1 uM, day 4) | CDKN2A expression change, significance 0 uM vs. ([2]; 0.1 uM, day 4) | EGR1 expression change, significance 0 uM vs. ([2]; 0.1 uM, day 4) | ATF3 expression change, significance 0 uM vs. ([2]; 1 uM, day 2) | CDKN2A expression change, significance 0 uM vs. ([2]; 1 uM, day 2) | ATF3 expression change, significance 0 uM vs. ([2]; 1 uM, day 4) | CDKN2A expression change, significance 0 uM vs. ([2]; 1 uM, day 4) | EGR1 expression change, significance 0 uM vs. ([2]; 1 uM, day 4) | ATF3 expression change, significance 0 uM vs. ([2]; 1 uM, day 7) | CDKN2A expression change, significance 0 uM vs. ([2]; 1 uM, day 7) | EGR1 expression change, significance 0 uM vs. ([2]; 1 uM, day 7) |
| --- | --- | --- | --- | --- | --- | --- | --- | --- | --- | --- | --- | --- | --- | --- | --- | --- | --- | --- | --- |
| CCN(c1cc(-c2ccc(CN3CCOCC3)cc2)cc(C(=O)NCc2c(C)cc(C)[nH]c2=O)c1C)[C@H]1CC[C@H](N(C)C)CC1 [Compound E] | did not | high sensitivity |  |  |  |  |  |  |  |  |  |  |  |  |  |  |  |  |  |
| CCN(c1cc(C#CCN2CCOCC2)cc(C(=O)NCc2c(C)cc(C)[nH]c2=O)c1C)C1CCC(N(C)CCOC)CC1 (stereo not shown) [EPZ-011989] |  |  | * | ** | * | not in SW982 | upregulated | Dose- and time-dependent CDKN2A upregulation | ** | **** | ** | * | *** | * | **** | ** | ** | **** | ** |
